This is an account of results in patent publication US20070249545A1, “DIHYDROFOLATE REDUCTASE INHIBITION BY EPIGALLOCATECHIN GALLATE COMPOUNDS” (priority 2004, published 2007).

pIC50, pKd, pKi: −log10 of the molar value.

One test concerns the target T1, free rHDHFR (Homo sapiens, UniProt P00374).
T1 sequence (P00374 1-187): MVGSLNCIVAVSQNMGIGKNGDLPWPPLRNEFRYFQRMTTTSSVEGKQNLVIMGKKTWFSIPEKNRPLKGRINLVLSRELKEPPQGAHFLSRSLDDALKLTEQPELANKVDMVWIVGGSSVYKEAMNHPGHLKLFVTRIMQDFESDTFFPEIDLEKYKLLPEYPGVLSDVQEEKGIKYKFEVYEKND
Put plainly: Binding of EGCG to free DHFR by quenching of enzyme fluorescence. Conditions: read-out: dissociation constant. The method, then:
The binding of EGCG to free DHFR was determined by following the decrease in enzyme fluorescence that occurs on formation of the enzyme-inhibitor complex. […] The binding of EGCG quenches this fluorescence. The data for the resulting titration curves were used for dissociation constant determinations.

Another test has as its system S. maltophilia. Nature of the test: Broth dilution MIC determination. The format is cell-based, Stenotrophomonas maltophilia. On the procedure:
Eighteen strains of cotrimoxazole susceptible S. maltophilia were collected during the last year at the Hospital Universitario Virgen de la Arrixaca (Murcia, Spain) from clinical isolates. Bacteria were frozen at −70° C. in glycerol-meat medium and inoculated onto Columbia agar (Fluka Chemie GmbH, Madrid, Spain) supplemented with 5% of defibrinated sheep blood 48 and 24 h prior to susceptibility testing.
MICs for the 18 strains were determined by the broth dilution method at a final inoculum of 5×10^5 CFU/ml, according to the guidelines recommended by the NCCLS by using cation-adjusted Mueller-Hinton broth (Fluka). After incubation at 37° C. for 24 h, the lowest concentration of the two-fold serially diluted EGCG at which no visible growth occurred was defined as its MIC.
On the technique in general: Dilution methods test growth across graded concentrations, often in twofold steps.

The next test concerns L1210 cells. Nature of the test: EGCG cytotoxicity / growth of L1210 cells. The format is cell-based, mouse. On the procedure: L1210 cells were plated at a density of 10,000 cells/ml in 96-well plates with a “standard folate” RPMI 1640 medium supplemented with 10% FCS. Reversion experiments were carried out in an HT medium and/or by adding 50 μM ascorbic acid (AA). Cell injury was evaluated by a calorimetric assay for mitochondrial function using the MTT test.^29
The effect of different EGCG concentrations on L1210 cell growth after 29 h of treatment at two different folic acid concentrations was determined. The cells were previously adapted over a period of 2-3 days to grow in folate-free RPMI 1640 medium supplemented with 10% dialyzed FCS and 2 mM glutamine. This medium is subsequently referred to as LF (low folate). For the cytotoxicity assay, the cells were grown in LF media supplemented with folic acid (3 μM or 300 nM). Treatments were carried out in triplicate, and each experiment performed at least twice. Cell growth was determined by two different methods, Coulter counter Z2 and hemocytometer (FIG. 7). IC50 values were determined at each folic acid concentration added to the medium.
The growth-inhibitory effects of 10 μM EGCG at various folic acid concentrations were determined at two different time intervals. L1210 cells were cultured in a LF medium supplemented with the corresponding folic acid concentration. The data were obtained by using a Coulter counter and hemocytometer and expressed assuming a zero percentage of growth inhibition for untreated control (FIG. 8). Cells were maintained in the corresponding medium with 100 μg/ml of penicillin and streptomycin at 37° C. in a humid 7.5% CO2, […] environment for all the experiments.

In a further test the target is S. maltophilia DHFR (Stenotrophomonas maltophilia, UniProt B2FPG1). The test is classed as biochemical. The settings on record: S. maltophilia DHFR. The method, then: For the DHFR extraction, S. maltophilia strain number 1, was inoculated onto fresh agar 24 h before using. Then, liquid medium was inoculated with the strain and these broth cultures were incubated at 37° C. and shaken at 100 cycles per min. Solid medium was MacConkey agar (Oxoid Ltd., Basingstoke, England). Liquid medium was Brilliant Green Bile 2% broth (Oxoid). Bacteria were grown to mid-log phase, harvested by centrifugation (1,600 rpm 30 min) and washed twice in 50 mM phosphate buffer (pH 7.0) followed each time by a new centrifugation (1,600 rpm 5 min). Cell lysis, centrifugation, and dialysis were carried out between 4 and 8° C. Fast protein liquid chromatography (FPLC) purification steps were performed at room temperature. […] After centrifugation at 36,000 rpm for 30 min to remove cell debris, the supernatant was filtered. This supernatant was brought to 40% saturation with solid ammonium sulfate under continuous stirring. After 1 h the solution was centrifuged at 35,000 rpm for 30 min and the pellet discarded. Additional ammonium sulfate was added to the clear supernatant to give 90% saturation and stirred for 1 h. After centrifugation, the precipitates were suspended in 2 ml of buffer B (10 mM potassium phosphate buffer, pH 7.4, 2 mM β-mercaptoethanol). Concentrated enzyme (2 ml samples) was loaded onto a […] gel-filtration column (Sephacryl S-75 16/60 Hi-Prep, Amersham Pharmacia Biotech Europe GmbH, Barcelona, Spain), equilibrated with buffer B and eluted at 0.5 ml/min. The active fractions were concentrated and stored at −80° C. until used.
Chain of S. maltophilia DHFR (B2FPG1 entry or part of it): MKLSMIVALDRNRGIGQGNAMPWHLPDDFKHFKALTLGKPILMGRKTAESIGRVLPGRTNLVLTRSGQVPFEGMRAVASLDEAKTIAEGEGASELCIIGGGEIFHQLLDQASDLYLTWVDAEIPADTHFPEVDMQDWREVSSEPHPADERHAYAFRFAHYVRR
Initial velocity inhibition experiments were carried out for the inhibition studies of S. maltophilia with TMP and EGCG. One substrate (NADPH) was held constant at saturating concentration while the other substrate (DHF) and the inhibitor (TMP or EGCG) were varied. To prevent the oxidation of EGCG the reaction mixture contained 1 mM N-acetylcysteine (Sigma). For MTX inhibition the slow development of […] inhibition was determined by continuously monitoring the disappearance of NADPH and DHF after initiation of the reaction by the addition of DHFR. Reaction mixtures contained buffer, NADPH (100 μM), DHF (20 μM), and various concentrations of MTX. The extent of recovery of enzymatic activity following inhibition induced by preincubation with DHFR inhibitors was determined as follows. DHFR was preincubated for 30 min at 25° C. in the buffer mixture containing MTX, TMP or EGCG. An aliquot of the incubation mixture was then diluted 500-fold into a reaction mixture containing buffer mixture, NADPH (100 μM), and DHF (20 μM). Recovery of enzyme activity was followed by continuous monitoring at 340 nm.
Provided that the concentration of free inhibitor is not substantially altered by the formation of an enzyme-NADPH-inhibitor complex, the progress curve for the inhibition in the presence of saturating NADPH can be described by Eqn. 1 (as above): P=vst+(v0−vs)(1−exp(−kobst))/kobs • where vs, v0 and kobs represent the steady-state velocity, initial velocity and apparent first-order rate constant, respectively. The apparent first-order rate constant is related to the inhibitor concentration by Eqn. 2, where Ki denotes the dissociation constants for the initial binding of MTX to the enzyme-NADPH complex. [formula]

Setting [1] is: eighteen S. maltophilia isolates.

As usually defined, the MIC is the smallest concentration in the dilution series that meets the test's criterion for growth inhibition. Read a low MIC as a more susceptible organism. As a reminder, the MIC50 is an inhibitory concentration at the 50% level, which refers to growth in some studies and to a panel of isolates in others. A high value points to lower susceptibility. In general, MIC90 refers to the lowest concentration that inhibits either 90% of growth or 90% of the strains tested, depending on the study. Low readings indicate higher susceptibility, high ones lower susceptibility. Usually pIC50 stands for −log10 of the IC50, conventionally taken in molar units. A word on the pKi: it is the Ki on a negative log10 scale, so that one unit is a factor of ten.

Take (−)-epigallocatechin gallate [EGCG]: the pKd at free rHDHFR was 6.10. Besides, in the test on S. maltophilia (S. maltophilia strain 1), the minimal inhibitory concentration (MIC) was 64 mg/L. In the test on S. maltophilia (setting [1]), the MIC50 worked out at 32 mg/L, the MIC90 was 64 mg/L and the “MICs (range)” value lay within 4 to 256 µg/mL. Besides, in the test with L1210 cells (L1210, EGCG 20 μM), the “growth inhibition in HT medium containing ascorbic acid, NAC or SOD” value is recorded as “completely removed the inhibitory effect”. Moreover, the “growth inhibition with ascorbic acid in the medium” value in the test on L1210 cells (L1210, EGCG 20 μM, antioxidant ascorbic acid) is given as “partially lifted”. Also, in the test on L1210 cells (L1210, LF medium (30 nM folic acid), EGCG 1 μM), the “growth inhibition in HT medium, low folate” value is “completely reversed”. In addition, in the test with L1210 cells (L1210, hypoxanthine-thymidine (HT) medium, EGCG 20 μM), the “growth inhibition in HT medium” value is given as “high level of inhibition reversal”. In the test with L1210 cells (RPMI 1640 medium with 10% FCS (standard folate)), the pIC50 was 4.70. Moreover, at S. maltophilia DHFR, the “Type of inhibition observed” value is given as “competitive (reversible)”. The negative logarithm of the Ki (pKi) on S. maltophilia DHFR (competitive respect to DHF, read-out: inhibition constant (Ki)) is 5.39. Besides, the “effect of preincubation of the enzyme with inhibitor” value at S. maltophilia DHFR (preincubation 30 min, 500-fold dilution) is listed as “did not showed any effect on enzymatic activity”.
